Results as given in paper PMC6934184, “Selective DNA-PKcs inhibition extends the therapeutic index of localized radiotherapy and chemotherapy” (The Journal of Clinical Investigation, 2019).

Molecular target: T1, MAP2K2 (MEK2) (Homo sapiens, UniProt P36507)
T1 construct: purchased Thermo Fisher Scientific (Life Technologies) SelectScreen
Assay: SelectScreen Z'LYTE
Assay type: biochemical
Conditions: ATP 100 µM
In short: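 Compound tested in SelectScreen activity assays, Z'LYTE for CSF1R, CDK1/cyclin B and MAP2K6 and Adapta for CAMK1. ATP for CAMK1 was listed as 10, and Km app was used for CSF1R. Results are expressed in percent.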

T1 sequence (P36507 whole entry): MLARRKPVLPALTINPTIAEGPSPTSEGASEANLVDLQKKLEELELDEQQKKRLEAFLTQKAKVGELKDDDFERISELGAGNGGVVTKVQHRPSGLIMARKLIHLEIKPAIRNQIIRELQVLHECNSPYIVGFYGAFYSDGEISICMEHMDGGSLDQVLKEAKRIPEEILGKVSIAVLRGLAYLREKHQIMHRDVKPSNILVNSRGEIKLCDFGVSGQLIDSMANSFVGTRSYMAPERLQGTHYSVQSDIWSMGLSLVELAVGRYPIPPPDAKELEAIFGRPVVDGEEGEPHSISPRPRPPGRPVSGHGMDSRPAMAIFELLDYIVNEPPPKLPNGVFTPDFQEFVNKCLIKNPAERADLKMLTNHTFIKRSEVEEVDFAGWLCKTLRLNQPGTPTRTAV

Q: For `CN(C(=O)CN1CCOCC1)c1ccc2sc3c(-c4cccc5c(=O)cc(N6CC7CCC(C6)O7)oc45)cccc3c2c1` [NU5455], which inhibition at 1 µM is on record?
A: The inhibition at 1 µM was 3.9%.
